# According to patent US9850225B2, “Compounds useful as immunomodulators” (BRISTOL-MYERS SQUIBB COMPANY, priority 2014, dated 2017):
# pIC50: −log10 of the molar value.
# Molecular target: PD-1/PD-L1 interaction (PD-1-Ig / PD-L1-His) (Homo sapiens (Human), UniProt Q9NZQ7)
# Experiment: PD-1/PD-L1 Homogenous Time-Resolved Fluorescence (HTRF) binding assay
# Details: PD-1/PD-L1 HTRF binding assay; value given as range class; read-out: Range or IC50
# Procedure, shortened: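 HTRF detection used 1 nM europium-cryptate anti-Ig and 20 nM APC anti-His. Compounds first saw 10 nM PD-L1-His for 15 min, and 20 nM PD-1-Ig was then added for another 15 min. Buffer was dPBS plus 0.1% BSA and 0.05% Tween-20. All concentrations are final.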
# Sequence of PD-1/PD-L1 interaction (PD-1-Ig / PD-L1-His) (Q9NZQ7 other isoform, or with tags, fused parts or gaps): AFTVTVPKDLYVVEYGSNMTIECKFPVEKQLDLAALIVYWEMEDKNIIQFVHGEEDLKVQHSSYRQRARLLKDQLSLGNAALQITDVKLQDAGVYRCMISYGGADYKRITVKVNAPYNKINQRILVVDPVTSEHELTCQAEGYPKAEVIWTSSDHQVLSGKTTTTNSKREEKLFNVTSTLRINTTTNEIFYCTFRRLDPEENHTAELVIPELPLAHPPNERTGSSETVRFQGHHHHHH
row,pIC50,SMILES
1,8.00 to 9.22,"Cc1c(COc2cc(OCc3cccc(C#N)c3)c(CN3CC[C@@H](O)[C@H]3C(=O)O)cc2Cl)cccc1-c1ccc2c(c1)OCCO2 [Example 1204, (2S,3R)-1-(5-chloro-2-((3-cyanobenzyl)oxy)-4-((3-(2,3-dihydrobenzo[b][1,4]dioxin-6-yl)-2-methylbenzyl)oxy)benzyl)-3-hydroxypyrrolidine-2-carboxylic acid]"
2,8.00 to 9.22,"Cc1c(COc2cc(OCc3cncc(C#N)c3)c(CN[C@@](C)(CO)C(=O)O)cc2Cl)cccc1-c1ccc2c(c1)OCCO2 [Example 1252, (S)-2-(5-chloro-2-((5-cyanopyridin-3-yl)methoxy)-4-(3-(2,3-dihydrobenzo[b][1,4]dioxin-6-yl)-2-methylbenzyloxy)benzylamino)-3-hydroxy-2-methylpropanoic acid]"
3,8.00 to 9.22,"CCOC(=O)Nc1cncc(COc2cc(OCc3cccc(-c4ccc5c(c4)OCCO5)c3C)c(Cl)cc2CN[C@@](C)(CO)C(=O)O)c1 [Example 3009, (S)-2-((5-chloro-4-((3-(2,3-dihydrobenzo[b][1,4]dioxin-6-yl)-2-methylbenzyl)oxy)-2-((5-((ethoxycarbonyl)amino)pyridin-3-yl)methoxy)benzyl)amino)-3-hydroxy-2-methylpropanoic acid]"
4,7.00 to 8.00,"Cc1c(COc2cc(OCc3cccc(C#N)c3)c(CN[C@H](CC(=O)O)C(=O)O)cc2Cl)cccc1-c1ccc2c(c1)OCCO2 [Example 1175, (R)-2-((5-chloro-2-((3-cyanobenzyl)oxy)-4-((3-(2,3-dihydrobenzo[b][1,4]dioxin-6-yl)-2-methylbenzyl)oxy)benzyl)amino)succinic acid]"
5,4.70 to 7.00,"CC(=O)NCCNCc1ccc(OCc2cccc(-c3ccccc3)c2C)cc1OCc1cccc(F)c1 [Example 1050, N-(2-((2-((3-fluorobenzyl)oxy)-4-((2-methyl-[1,1′-biphenyl]-3-yl)methoxy)benzyl)amino)ethyl)acetamide]"
6,8.00 to 9.22,"Cc1c(COc2cc(OCc3cncc(C#N)c3)c(CN[C@@H](CC(=O)O)C(=O)O)cc2Cl)cccc1-c1ccc2c(c1)OCCO2 [Example 3023, (S)-2-((5-chloro-2-((5-cyanopyridin-3-yl)methoxy)-4-((3-(2,3-dihydrobenzo[b][1,4]dioxin-6-yl)-2-methylbenzyl)oxy)benzyl)amino)succinic acid]"
7,7.00 to 8.00,"Cc1c(COc2ccc(CN3CCCC[C@H]3C(=O)O)c(OCc3cc(C#N)ccn3)c2)cccc1-c1ccc2c(c1)OCCO2 [Example 1132, (S)-1-(2-((4-cyanopyridin-2-yl)methoxy)-4-(3-(2,3-dihydrobenzo[b][1,4]dioxin-6-yl)-2-methylbenzyloxy)benzyl)piperidine-2-carboxylic acid]"

# Continued, molecule first:
row,SMILES,pIC50
1,"Cc1cc(CN[C@@](C)(CO)C(=O)O)c(OCc2cncc(C#N)c2)cc1OCc1cccc(-c2ccc3c(c2)OCCO3)c1C [Example 1286, (S)-2-(2-((5-cyanopyridin-3-yl)methoxy)-4-(3-(2,3-dihydrobenzo[b][1,4]dioxin-6-yl)-2-methylbenzyloxy)-5-methylbenzylamino)-3-hydroxy-2-methylpropanoic acid]",8.00 to 9.22
2,"CC(=O)NCCNCc1ccc(OCc2cccc(-c3ccccc3)c2C)cc1OCc1cccc(C)c1 [Example 1025, N-(2-((4-((2-methyl-[1,1′-biphenyl]-3-yl)methoxy)-2-((3-methylbenzyl)oxy)benzyl)amino)ethyl)acetamide]",4.70 to 7.00
3,"Cc1cc(CN[C@@H](CO)C(=O)O)c(OCc2cccnc2)cc1OCc1cccc(-c2ccc3c(c2)OCCO3)c1C [Example 1277, (S)-2-((4-((3-(2,3-dihydrobenzo[b][1,4]dioxin-6-yl)-2-methylbenzyl)oxy)-5-methyl-2-(pyridin-3-ylmethoxy)benzyl)amino)-3-hydroxypropanoic acid]",8.00 to 9.22
4,"Cc1c(COc2cc(OCc3cccc(C#N)c3)c(CNC(Cc3c[nH]c4ccc(O)cc34)C(=O)O)cc2Cl)cccc1-c1ccc2c(c1)OCCO2 (centres unmarked) [Example 1167, 2-((5-chloro-2-((3-cyanobenzyl)oxy)-4-((3-(2,3-dihydrobenzo[b][1,4]dioxin-6-yl)-2-methylbenzyl)oxy)benzyl)amino)-3-(5-hydroxy-1H-indol-3-yl)propanoic acid]",7.00 to 8.00
5,"Cc1cc(CN2CCCC[C@H]2C(=O)O)c(OCc2cncc(C#N)c2)cc1OCc1cccc(-c2ccc3c(c2)OCCO3)c1C [Example 1285, (S)-1-(2-((5-cyanopyridin-3-yl)methoxy)-4-(3-(2,3-dihydrobenzo[b][1,4]dioxin-6-yl)-2-methylbenzyloxy)-5-methylbenzyl)piperidine-2-carboxylic acid]",8.00 to 9.22
6,"CC(=O)NCCNCc1ccc(OCc2cccc(-c3ccccc3)c2C)cc1OCc1ccc(S(C)(=O)=O)cc1 [Example 1084, N-(2-((4-((2-methyl-[1,1′-biphenyl]-3-yl)methoxy)-2-((4-(methylsulfonyl)benzyl)oxy)benzyl)amino)ethyl)acetamide]",4.70 to 7.00
7,"Cc1c(COc2ccc(CN[C@@H](CO)CC(=O)O)c(OCc3cccc(C#N)c3)c2)cccc1-c1ccccc1 [Example 1022, (R)-3-((2-((3-cyanobenzyl)oxy)-4-((2-methyl-[1,1′-biphenyl]-3-yl)methoxy)benzyl)amino)-4-hydroxybutanoic acid]",8.00 to 9.22
8,"Cc1c(COc2cc(OCc3cccc(C#N)c3)c(CN3CCC[C@@H](C(=O)O)[C@H]3C(=O)O)cc2Cl)cccc1-c1ccc2c(c1)OCCO2 [Example 1190, (2S,3R)-1-(5-chloro-2-((3-cyanobenzyl)oxy)-4-((3-(2,3-dihydrobenzo[b][1,4]dioxin-6-yl)-2-methylbenzyl)oxy)benzyl)piperidine-2,3-dicarboxylic acid]",8.00 to 9.22
9,"Cc1c(COc2cc(OCc3cccc(C#N)c3)c(CN[C@@H](CC#N)C(=O)O)cc2Cl)cccc1-c1ccc2c(c1)OCCO2 [Example 1180, (S)-2-((5-chloro-2-((3-cyanobenzyl)oxy)-4-((3-(2,3-dihydrobenzo[b][1,4]dioxin-6-yl)-2-methylbenzyl)oxy)benzyl)amino)-3-cyanopropanoic acid]",7.00 to 8.00
10,"Cc1c(COc2cc(OCc3cccc(C#N)c3)c(CN3CCOCC3C(=O)O)cc2Cl)cccc1-c1ccc2c(c1)OCCO2 (centres unmarked) [Example 1213, 4-(5-chloro-2-((3-cyanobenzyl)oxy)-4-((3-(2,3-dihydrobenzo[b][1,4]dioxin-6-yl)-2-methylbenzyl)oxy)benzyl)morpholine-3-carboxylic acid]",7.00 to 8.00
11,"Cc1c(COc2ccc(CNC[C@@H](O)CC(=O)O)c(OCCCCC#N)c2)cccc1-c1ccccc1 [Example 1144, (S)-4-((2-(4-cyanobutoxy)-4-((2-methyl-[1,1′-biphenyl]-3-yl)methoxy)benzyl)amino)-3-hydroxybutanoic acid]",8.00 to 9.22
12,"CC(=O)NCCNCc1cc(C)c(OCc2cccc(-c3ccc4c(c3)OCCO4)c2C)cc1OCCCCC#N [Example 1294, N-(2-(2-(4-cyanobutoxy)-4-(3-(2,3-dihydrobenzo[b][1,4]dioxin-6-yl)-2-methylbenzyloxy)-5-methylbenzylamino)ethyl)acetamide]",7.00 to 8.00

# Same assay, conditions: PD-1/PD-L1 HTRF binding assay; μM; read-out: Range or IC50
row,IC50 [µM],SMILES
1,2.35,"COc1ccccc1COc1cc(OCc2cccc(-c3ccc4c(c3)OCCO4)c2C)c(Cl)cc1CN1CCCC[C@H]1C(=O)O [Example 3029, (S)-1-(5-chloro-4-((3-(2,3-dihydrobenzo[b][1,4]dioxin-6-yl)-2-methylbenzyl)oxy)-2-((2-methoxybenzyl)oxy)benzyl)piperidine-2-carboxylic acid]"
